Values quoted from earlier work, collected in US20090324709A1, “LIPOSOMAL FORMULATIONS” (Italfarmaco, S.A., priority 2004, published 2009).
Like-named read-outs stand apart in the source and are kept apart here. Each block holds one compound with its values, some of them ahead of it.

Settings: for release of 5-FU: DSPC liposomes, six hours after preparation; for retention of acyclovir: neutral egg PC:cholesterol 15:1 DRV liposomes; for retention of iododeoxyuridine: egg PC:cholesterol 15:1 DRV liposomes

SMILES: O=c1[nH]cc(F)c(=O)[nH]1 [Example 5-FU, 5-fluorouracil]
release of 5-FU (25° C.): 10% | release of 5-FU (37° C.): 50% | 5-FU that escapes (LUV DSPC liposomes, 60 minutes): more than 75% | escape of 5-FU (LUV SPC, SPC:Cholesterol (1:1), SPC:Cholate (84:16), in saturated 5-FU solution, after 50 minutes): more than 50% | release of the drug on eliminating the pH gradient (LUV liposomes actively charged through pH gradient (U.S. Pat. No. 6,083,530)): immediate | release of initially encapsulated 5-FU (SPC:Cholate liposomes in solution without 5-FU, after 5 minutes): 80% | 5-FU initially encapsulated still inside the liposomes (multilamellar liposomes of sphingomyelin, cholesterol and dicetyl-phosphate, 40 hours at 25° C.): 20% | 5-FU remaining inside (type A liposome soy lecithin:cholesterol hemisuccinate:cholesterol (10:1:4), 28 days at room temperature): 10% | 5-FU released (type B liposomes DPPC:cholesterol hemisuccinate:cholesterol (10:1:4), 42 days at room temperature): 40%

SMILES: O=c1[nH]c(=O)n([C@H]2C[C@H](O)[C@@H](CO)O2)cc1F [floxuridine]
retention of floxuridine (MLV SM:CHOL:DCP 4.8:2.8:1, 40 hours at 25° C.): 70%

SMILES: O=c1[nH]c(=O)n([C@H]2C[C@H](O)[C@@H](CO)O2)cc1I [iododeoxyuridine]
retention of iododeoxyuridine (24 hours at 4° C.): 50% | retention of iododeoxyuridine (one hour at 37° C.): 20%

Second part, the compound after the results:

retention of acyclovir (24 hours at 37° C.): 48% | retention of acyclovir (14 days at 4° C.): 44%
SMILES: Nc1nc2c(ncn2COCCO)c(=O)[nH]1 [acyclovir]

methotrexate retention (EPC liposomes, MLV and REV, 30 days at 4° C.): 70% | methotrexate retention (EPC liposomes, MLV and REV, 30 days at 25° C.): 40% | methotrexate retention (EPC liposomes, MLV and REV, 30 days at 37° C.): < 10% | methotrexate retention (MLV HSPC:CHOL and HSPC:CHOL:DCP, 8 hours at 37° C.): 35%
SMILES: CN(Cc1cnc2nc(N)nc(N)c2n1)c1ccc(C(=O)N[C@@H](CCC(=O)O)C(=O)O)cc1 [methotrexate]
